US20100093716A1, “THERAPEUTIC METHODS USING WRN BINDING MOLECULES” (TRUSTEES OF BOSTON UNIVERSITY AND PRESIDENT AND FELLOWS OF …, priority 2006, published 2010)

Columns and labels:
[1] = tested on: ataxia telanglectasia mutated (ATM) kinase; assay: phosphorylation of ATM at serine 1981 in MM-AN cells, Western blot; type: cell-based, human; conditions: 40 μM, 48 hours
Description: Phosphorylated ATM in turn phosphorylates, and thus activates, p53. MM-AN cells were treated with diluent (medium or DMSO) alone, 40 μM of […] or 40 μM of SPOX-2 for 48 hours then collected and analyzed by Western blot using an antibody against ATM phosphoserine 1981.

Histone H2AX (γH2AX) [2] = assay: γH2AX formation in human fibroblasts by immunofluorescent microscopy; type: cell-based; conditions: 48 hours
Description: Phosphorylation of Histone H2AX (forming γH2AX) is a marker for DNA damage in many settings and is also observed at telomeres when cells enter senescence. […] In both experiments, cells were incubated for 48 hours in the presence of SPOX-1 or 11mer T-oligo before processing for immunofluorescent microscopy.

[3] = tested on: WRN− U20S human osteosarcoma cells; assay: apoptosis of WRN− U20S cells by FACS analysis; type: cell-based; conditions: 96 hours
Description: (§1) Cultures of WRN+ and WRN− U20S human osteosarcoma cells were treated with either diluent (water or DMSO) alone, 16mer T-oligo (SEQ ID NO: 2) or SPOX-1 for 96 hours, then collected and processed for FACS analysis. One concentration of the 16mer T-oligo was tested, 20 μM, and three concentrations of SPOX-1 were tested, 10 μM, 40 μM and 80 μM.

[4] = tested on: H460 human lung cancer cells; assay: growth of H460 lung cancer cells; type: cell-based; conditions: 40 μM; 1, 2, 3 and 4 days after plating
Description: (§2) The effect of SPOX compounds on growth of human lung cancer cells was tested using cultures of H460 cells. Briefly, 20,000H460 cells were plated per 35 mm dish. Medium containing either diluent (DMSO) alone, SPOX-1 or SPOX-2 (40 μM) was introduced at 96 hours and growth was determined 1, 2, 3 and 4 days after plating.

survivin = survivin expression in H460 lung cancer cells; type: cell-based, human; conditions: for survivin expression at 80 μM: 24 hours; for survivin expression / survivin expression at 40 μM: 2 days, 40 μM; for survivin expression: 20 μM
Description: The ability of the SPOX compounds to inhibit expression of survivin, a member of the Inhibitor of Apoptosis Protein (IAP) family, was determined by treating H460 human lung cancer cells for two days with diluent (DMSO) alone, SPOX-1 (20 μM, 40 μM), SPOX-2 (20 μM, 40 μM) and T-oligo (16mer: 5′ GGTTGGTTGGTTGGTT 3′; SEQ ID NO: 3) (20 μM, 40 μM) or for 24 hours with SPOX-1 (80 μM) or SPOX-2 (80 μM). Following treatment, cells were collected, counted, and assayed for survivin expression. The results are depicted in FIG. 15.

human skin explants = assay: melanogenesis in human skin explants (Fontana Masson stain, image analysis); type: cell-based; conditions: 80 uM; 24, 48 and 72 hours; positive control pTT 100 uM
Description: Normal facial skin removed from a person at the time of facelift was carefully cut into fragments approximately 5×5 mm. The fragments were placed in tissue culture dishes in standard culture medium, under conditions known to maintain the fragments in good condition, responsive to physiologic stimuli, for at least one week (Arad et al, FASEB J. Jul. 28, 2006. [Epub]). Fragments were arranged with at least 3 per 35 mm dish and after 48 hours, one dish each was provided with fresh medium containing diluent (DMSO) alone (Dil) or SPOX-1 or SPOX-2 each at 80 uM or thymidine dinucleotide (pTT) at 100 uM as a positive control. […] The 72 hour diluent (Dil) control sample was judged to be bacterially contaminated, affecting both the overall histology and the apparent melanin content, which based on earlier experiments would be expected to be the same as at 24 and 48 hours. All other samples were believed to be healthy and to accurately represent the response to treatment.

p53 = p53 level in human fibroblasts, Western blot; type: cell-based; conditions: 48 hours, compared with diluent alone
Description: (§3) Human fibroblasts were treated with diluent (water or DMSO) alone, SPOX-1, SPOX-2, or 16mer T-oligo (SEQ ID NO: 2) for 48 hours after which total cellular proteins were harvested and Western blot analysis performed using anti-p53 and anti-p21 antibodies.

[5] = tested on: MM-AN human melanoma cells; assay: apoptosis of MM-AN melanoma cells by FACS analysis (propidium iodide); type: cell-based; conditions: 10 μM, 40 μM and 80 μM
Description: Cultures of MM-AN human melanoma cells were treated with diluent (water or DMSO) alone, a T-oligo (16mer: 5′ GTTAGGGTTAGGGTTA 3′; SEQ ID NO: 2), SPOX-1, or SPOX-2 for 96 hours, then collected and processed for FACS analysis. One concentration of the T-oligo (20 μM) and three concentrations of each SPOX compound (10 μM, 40 μM and 80 μM) were tested. Each bar is the mean of triplicate dishes +/− standard error of the mean (SEM). FACS profiles are depicted at the top of the figure.
Cultures of MM-AN human melanoma cells were treated with diluent (water or DMSO) alone, 16mer T-oligo (SEQ ID NO: 2), SPOX-337, SPOX-338 or SPOX-343 for 72 hours, then collected and processed for FACS analysis. One concentration of the T-oligo (20 μM) and three concentrations of each SPOX compound (10 μM, 40 μM and 80 μM) were tested.

MCF-7 cells = assay: growth of MCF-7 breast cancer cells; type: cell-based, human; conditions: for growth of MCF-7 cells: 10 μM; for growth of MCF-7 cells / growth of MCF-7 cells at higher concentrations: 40 μM and 80 μM; for growth of MCF-7 cells at higher concentrations: 8 days after plating; for growth of MCF-7 cells at highest concentration: 80 μM, 3 days after plating; for growth arrest of malignant cells: summary statement
Description: The effect of SPOX compounds on growth and apoptosis of human breast cancer cells was tested using cultures of MCF-7 cells. The effect on cell growth was tested by plating 20,000 cells per 35 mm dish. Medium containing either diluent alone (DMSO), SPOX-1 or SPOX-2 (10 μM, 40 μM and 80 μM) was introduced at 96 hours and growth was determined 8 days after plating.
The effect of SPOX compounds on growth of human breast cancer cells was tested using cultures of MCF-7 cells. The effect on cell growth was tested by plating 20,000 cells per 35 mm dish. Medium containing either diluent (water or DMSO) alone, SPOX-337, SPOX-388, SPOX-343 (10 μM, 40 μM and 80 μM) or 16mer T-oligo (SEQ ID NO: 2) was introduced at 96 hours and growth was determined 3 days after plating.

p21 = p21 level in human fibroblasts, Western blot; type: cell-based; conditions: 48 hours, compared with diluent alone
Description: as §3

[6] = tested on: MM-AN human melanoma cells; assay: growth of MM-AN melanoma cells; type: cell-based; conditions: 40 μM; 2, 3 and 4 days after treatment
Description: as §2, with “melanoma” for “lung cancer”, “MM-AN” for “H460”, “20,000 MM-AN” for “20,000H460”, “determined” for “determined 1,”, “treatment.” for “plating.”

Histone H2AX (γH2AX) [7] = assay: γH2AX formation in MCF-7 cells, western blot; type: cell-based, human; conditions: compared with 16mer T-oligo
Description: (§4) Phosphorylation of Histone H2AX (forming γH2AX) was assessed as a marker for DNA damage. Apoptosis was measured by western blot analysis to show cleavage of poly(ADP-ribose) polymerase (PARP). PARP is a substrate for caspase-3, an enzyme that mediates apoptosis, and thus cleavage of PARP by caspase-3 is indicative of ongoing apoptosis. […] Thus, both SPOX compounds induce apoptosis and formation of γH2AX, as a marker of DNA damage-like responses, in the MCF-7 breast cancer cell line.

human fibroblasts = assay: growth of newborn fibroblast cells; type: cell-based; conditions: 40 μM; growth determined 2 and 4 days after plating
Description: The effect of SPOX compounds on growth of human fibroblasts was tested using cultures of newborn fibroblast cells. Briefly, 20,000 cells were plated per 35 mm dish. Medium containing either diluent (dimethyl sulfoxide (DMSO)) alone, SPOX-1 (40 μM) SPOX-2 (40 μM) or 11mer T-oligo (SEQ ID NO:1) was introduced at 96 hours and growth was determined 2 and 4 days after plating.

[8] = tested on: WRN+ U20S human osteosarcoma cells; assay: apoptosis of WRN+ U20S cells by FACS analysis; type: cell-based; conditions: 96 hours; 10 μM, 40 μM and 80 μM
Description: as §1

[9] = tested on: poly(ADP-ribose) polymerase (PARP); assay: PARP cleavage in MCF-7 cells, western blot; type: cell-based, human; conditions: compared with TNF-α
Description: as §4

[10] = growth determined 8 days after plating
[11] = growth determined 3 days after plating

Molecule: 11mer T-oligo: telomere homolog oligonucleotide, 11mer: 5′ GTTAGGGTTAG 3′; SEQ ID NO: 1 (listed as DNA, further chemistry not given here) [reference compound]
- phosphorylation of ATM at serine 1981 [1]: induce phosphorylation of ATM
- γH2AX expression (Histone H2AX (γH2AX) [2]): induce γH2AX expression

Molecule: 16mer T-oligo (SEQ ID NO: 2): telomere homolog oligonucleotide, 16mer: 5′ GTTAGGGTTAGGGTTA 3′; SEQ ID NO: 2 (listed as DNA, further chemistry not given here) [reference compound]
- induction of apoptosis in WRN− versus WRN+ U20S cells ([3]; 20 μM): less effective in inducing apoptosis in WRN− than in U20S cells with intact WRN

Molecule: C=CCOC(=O)C1C2C(=O)OC(c3ccccc3)C(c3ccccc3)N2C(c2ccc(O)cc2)C12C(=O)Nc1ccc(I)cc12 (centres unmarked) [SPOX-1]
- growth of H460 cells [4]: inhibited growth
- survivin expression at 80 μM (survivin): reduced survivin expression to nearly undetectable levels
- survivin expression (survivin): dose-dependent reduction in survivin expression
- survivin expression at 40 μM (survivin): nearly undetectable
- melanogenesis (tanning) in human skin (human skin explants): caused tanning, comparable to pTT
- γH2AX expression (Histone H2AX (γH2AX) [2]): induce γH2AX expression
- level of p53 (p53): induced the level of p53
- induction of apoptosis ([5]; 96 hours): induced apoptosis with SPOX-1 having a greater effect
- growth of MCF-7 cells (MCF-7 cells; [10]): inhibited growth of MCF-7 cells in a dose-dependent manner
- growth of MCF-7 cells at higher concentrations (MCF-7 cells): nearly complete inhibition of growth
- level of p21 (p21): induced the level of the p53-dependent downstream effector protein p21 to a similar degree as 16mer T-oligo
- growth of MM-AN cells [6]: inhibited growth
- phosphorylation of histone H2AX (γH2AX) (Histone H2AX (γH2AX) [7]): cause phosphorylation of the histone protein H2AX
- growth of human fibroblast cells (human fibroblasts): inhibited growth
- induction of apoptosis in WRN+ U20S cells [8]: induced apoptosis in WRN+ U20S cells in a dose-dependent manner
- PARP cleavage [9]: cause PARP cleavage
- induction of apoptosis in WRN− U20S cells ([3]; 40 μM and 80 μM): apoptosis was also seen

Molecule: C=CCOC(=O)C1C2C(=O)OC(c3ccccc3)C(c3ccccc3)N2C(c2ccc(O)cc2)C12C(=O)Nc1ccc(I)cc12 (centres unmarked) [SPOX-2]
- growth of H460 cells [4]: inhibited growth
- survivin expression at 80 μM (survivin): reduced survivin expression to nearly undetectable levels
- survivin expression (survivin): dose-dependent reduction in survivin expression
- survivin expression at 40 μM (survivin): nearly undetectable
- phosphorylation of ATM at serine 1981 [1]: induce phosphorylation of ATM
- melanogenesis (tanning) in human skin (human skin explants): caused tanning, comparable to pTT
- level of p53 (p53): induced the level of p53
- induction of apoptosis ([5]; 96 hours): induced apoptosis
- growth of MCF-7 cells (MCF-7 cells; [10]): inhibited growth of MCF-7 cells in a dose-dependent manner
- growth of MCF-7 cells at higher concentrations (MCF-7 cells): nearly complete inhibition of growth
- level of p21 (p21): induced the level of the p53-dependent downstream effector protein p21 to a similar degree as 16mer T-oligo
- growth of MM-AN cells [6]: inhibited growth
- phosphorylation of histone H2AX (γH2AX) (Histone H2AX (γH2AX) [7]): cause phosphorylation of the histone protein H2AX
- growth of human fibroblast cells (human fibroblasts): inhibited growth
- PARP cleavage [9]: cause PARP cleavage

Molecule: C=CCOC(=O)C1C2C(=O)OC(c3ccccc3)C(c3ccccc3)N2C(c2ccc(OCCO)cc2)C12C(=O)Nc1ccc(I)cc12 (centres unmarked) [SPOX-337]
- induction of apoptosis ([5]; 72 hours): induced apoptosis with SPOX-337 and SPOX-343 having greatest effect
- growth of MCF-7 cells (MCF-7 cells; [11]): inhibited growth of MCF-7 cells in a dose-dependent manner
- growth of MCF-7 cells at highest concentration (MCF-7 cells): nearly complete inhibition of growth
- growth arrest of malignant cells (MCF-7 cells): retain the capability of arresting the growth of malignant cells

Molecule: C=CCOC(=O)C1C2C(=O)OC(c3ccccc3)C(c3ccccc3)N2C(c2ccc(OCCO)cc2)C12C(=O)Nc1ccccc12 (centres unmarked) [SPOX-338]
- induction of apoptosis ([5]; 72 hours): induced apoptosis
- growth of MCF-7 cells (MCF-7 cells; [11]): inhibited growth of MCF-7 cells in a dose-dependent manner
- growth of MCF-7 cells at highest concentration (MCF-7 cells): nearly complete inhibition of growth
- growth arrest of malignant cells (MCF-7 cells): retain the capability of arresting the growth of malignant cells

Molecule: C=CCOC(=O)C1C2C(=O)OC(c3ccccc3)C(c3ccccc3)N2C(c2ccc(O)cc2)C12C(=O)Nc1ccccc12 (centres unmarked) [SPOX-343]
- induction of apoptosis ([5]; 72 hours): induced apoptosis with SPOX-337 and SPOX-343 having greatest effect
- growth of MCF-7 cells (MCF-7 cells; [11]): inhibited growth of MCF-7 cells in a dose-dependent manner
- growth of MCF-7 cells at highest concentration (MCF-7 cells): nearly complete inhibition of growth
- growth arrest of malignant cells (MCF-7 cells): retain the capability of arresting the growth of malignant cells
